Data from patent publication US5658883A, “Biologically active TGF-β1 peptides” (Celtrix Pharmaceuticals, Inc., priority 1995, dated 1997).
Where two headings read alike, the source gives them in different places. Bridge positions count the residues as written; N and C are the ends. Ends that are not written are not given here. Peptide text beside a SMILES is read from it. I, II: the chains in the order shown.

Columns and labels:
TGF-β receptor [1] = molecular target: TGF-β receptor
Protocol: (§1) Rat muscle myoblasts (L6, American Type Culture Collection) were plated in 6-well culture plates and cultured in DMEM supplemented with 100 units/ml penicillin, 100 μg/ml streptomycin, 2 mM L-glutamine, 10% FBS until the cells were 70-90% confluent. Medium was aspirated from the wells; and 1 ml of ice cold 20 mM glycine, 135 mM NaCl, pH 3.0 was added to each well for 2 min. The buffer was aspirated and each well was rinsed 2 times with 1 ml of DMEM, 25 mM Hepes, pH 7.4, 0.1% BSA. […] Radiolabeled TGF-β samples (500 μl ) either without unlabeled TGF-β or with excess unlabeled TGF-β (20-25 nM) were prepared and added to other wells. After 1 hr incubation at room temperature, each well was rinsed 2 times with 1 ml of Hank's balanced saline solution, 0.1% BSA. To each well, 500 μl of 1% Triton X-100, 10% glycerol, 20 mM Hepes, pH 7.4, 0.01% BSA was added and incubated at 37° C. with rotation for 30 min to lyse the cells. Samples were transferred into gamma-counting vials and counted for 1 min each.

TGF-β receptor [2] = settings: for competing against the binding of 125I-TGF-β1: at concentrations of up to 30 μM
Protocol: as §1

tumor cell proliferation = settings: in vitro assays, generally observed; cited from earlier work
[3] = system: Mink lung epithelial cells (Mv1Lu CCL64); assay: Mink lung epithelial cell proliferation inhibition assay; format: cell-based; settings: for ED50 (half-maximal inhibition of cell proliferation): 4 days, acid phosphatase readout
Protocol: TGF-β is known to inhibit proliferation of mink lung epithelial cells. The mink lung epithelial cell assay was thus used to test the ability of the peptides to mimic the biological activity of TGF-β. Mink lung epithelial cells (ATCC, Rockville, Md., Mv1Lu CCL64) were plated at 0.5-1.0×10^6 cells/plate in 100 mm culture plates and grown in Eagle's minimal essential medium (MEM) supplemented with 50 units/ml penicillin, 50 μg/ml streptomycin, nonessential amino acids, L-glutamine, and 10% fetal bovine serum (FBS). Cells were passaged while the cell density was subconfluent. Cells were detached with trypsin, collected by centrifugation at 800×g for 2 min, and resuspended in the culture medium at 20,000 cells/ml. The cells were plated in 96-well microtiter plates at 1000 cells (50 μl)/well. Peptides TGF-β116-31, TGF-β116-47, TGF-β216-31, TGF-β216-47 in monomeric and dimeric forms were lyophilized in the presence of sterile bovine serum albumin (BSA) carrier. Samples (50 μl) of the peptides were dissolved in the cell culture medium and added to the wells in triplicate. Recombinant human TGF-β2 was used as the standard. The plates were incubated under a 5% CO2 /95% (V/V) air atmosphere at 37° C. for 4 days. The number of cells/well in this assay is proportional to the activity of the constitutively expressed enzyme, acid phosphatase. To measure acid phosphatase activity, the wells were rinsed with phosphate-buffered saline (PBS), filled with 100 μl of 0.1M sodium acetate, pH 5.5/0.1% Triton X-100/100 mM p-nitrophenyl phosphate, and the plates were incubated at 37° C. for 2 hr. Ten μl of 1.0N NaOH was added to each well, and after 20 min at room temperature, the absorbance at 405 nm was measured.

murine thymocytes = assay: Inhibition of murine thymocyte proliferation (3H-thymidine incorporation); format: cell-based, C3H/HeJ mice
Protocol: In order to determine the effect of the peptides on proliferation of cell types other than mink lung epithelial cells, murine thymocytes were exposed to the peptides. Proliferation was measured by determining the amount of ^3 H-thymidine incorporated into the thymocyte DNA in response to the peptides. The cell culture assay was performed as described by Ellingsworth et al., Cell. Immunol., 114:41-54 (1988). Single-cell suspensions of thymocytes were prepared from 4 to 8 week old C3H/HeJ mice and the cells were suspended in Eagle's MEM supplemented with 5% fetal calf serum (FCS), 100 units/ml penicillin, 100 μg/ml streptomycin, 2 mM L-glutamine and 50 μM β-mercaptoethanol to 6.66×10^6 cells/ml. The thymocytes were plated into 96-well microtiter plates at 10^6 cells/well (150 μl). The cells were activated with 1.0 μg/ml of phytohemagglutinin and 8 units/ml of interleukin-1 (IL-1) (Boehringer Mannheim, Indianapolis, Ind.). […] The cells were incubated at 37° C. for 72 hr in a humidified incubator in 5% CO2 -95% air atmosphere. The cells were pulsed with 0.5 μCi/well of ^3 H-thymidine 24 hours prior to cell harvest. The thymocytes were harvested onto glass fiber filters and dried. The amount of ^3 H-thymidine incorporation was determined by liquid scintillation counting method.

[4] = 25 pM 125I-TGF-β2, L6 cells, 1 hr room temperature
[5] = PHA and IL-1 activated thymocytes, 72 hr

## CC[C@H](C)[C@H](NC(=O)[C@H](Cc1ccc(O)cc1)NC(=O)[C@H](CC(C)C)NC(=O)[C@@H]1CCCN1C(=O)[C@H](CCCNC(=N)N)NC(=O)[C@H](CC(C)C)NC(=O)[C@@H](N)CSSC[C@H](N)C(=O)N[C@@H](CC(C)C)C(=O)N[C@@H](CCCNC(=N)N)C(=O)N1CCC[C@H]1C(=O)N[C@@H](CC(C)C)C(=O)N[C@@H](Cc1ccc(O)cc1)C(=O)N[C@H](C(=O)N[C@@H](CC(=O)O)C(=O)N[C@@H](Cc1ccccc1)C(=O)N[C@@H](CCCCN)C(=O)N[C@@H](CCCNC(=N)N)C(=O)N[C@@H](CC(=O)O)C(=O)N[C@@H](CC(C)C)C(=O)NCC(=O)N[C@@H](Cc1c[nH]c2ccccc12)C(=O)N[C@@H](CCCCN)C(=O)O)[C@@H](C)CC)C(=O)N[C@@H](CC(=O)O)C(=O)N[C@@H](Cc1ccccc1)C(=O)N[C@@H](CCCCN)C(=O)N[C@@H](CCCNC(=N)N)C(=O)N[C@@H](CC(=O)O)C(=O)N[C@@H](CC(C)C)C(=O)NCC(=O)N[C@@H](Cc1c[nH]c2ccccc12)C(=O)N[C@@H](CCCCN)C(=O)O [TGF-β216-31 dimer] (I: H-CLRPLYIDFKRDLGWK-OH / II: H-CLRPLYIDFKRDLGWK-OH; disulfide I:1-II:1)
TGF-β receptor [1]
  ED50 (competition against binding of 125I-TGF-β2): 30000 nM

## TGF-β1: full length transforming growth factor β1
TGF-β receptor [2]; 25 pM 125I-TGF-β1, L6 cells, 1 hr room temperature
  ED50 (competition against binding of 125I-TGF-β1): 0.01 to 0.03 nM
TGF-β receptor [2]; read-out: apparent dissociation constant, estimated from competitive binding data, 125I-TGF-β1
  Kd: 0.01 to 0.03 nM

## TGF-β
Tumor cell proliferation
  concentration at which saturation is achieved: 10 ng/mL
  concentration for 50% inhibition of tumor cell proliferation: ~0.2 ng/mL

## CVRQLYIDFRKDLGWKWIHEPKGYHANFCLGP [TGF-β116-47 trimer] (cysteine pairing not given here; also: trimer)
[3]
  ED50 (half-maximal inhibition of cell proliferation): 32.7 nM

## CC[C@H](C)[C@H](NC(=O)[C@H](Cc1ccc(O)cc1)NC(=O)[C@H](CC(C)C)NC(=O)[C@H](CCC(N)=O)NC(=O)[C@H](CCCNC(=N)N)NC(=O)[C@@H](NC(=O)[C@@H](N)CSSC[C@H](N)C(=O)N[C@H](C(=O)N[C@@H](CCCNC(=N)N)C(=O)N[C@@H](CCC(N)=O)C(=O)N[C@@H](CC(C)C)C(=O)N[C@@H](Cc1ccc(O)cc1)C(=O)N[C@H](C(=O)N[C@@H](CC(=O)O)C(=O)N[C@@H](Cc1ccccc1)C(=O)N[C@@H](CCCNC(=N)N)C(=O)N[C@@H](CCCCN)C(=O)N[C@@H](CC(=O)O)C(=O)N[C@@H](CC(C)C)C(=O)NCC(=O)N[C@@H](Cc1c[nH]c2ccccc12)C(=O)N[C@@H](CCCCN)C(=O)O)[C@@H](C)CC)C(C)C)C(C)C)C(=O)N[C@@H](CC(=O)O)C(=O)N[C@@H](Cc1ccccc1)C(=O)N[C@@H](CCCNC(=N)N)C(=O)N[C@@H](CCCCN)C(=O)N[C@@H](CC(=O)O)C(=O)N[C@@H](CC(C)C)C(=O)NCC(=O)N[C@@H](Cc1c[nH]c2ccccc12)C(=O)N[C@@H](CCCCN)C(=O)O [TGF-β116-31 dimer] (I: H-CVRQLYIDFRKDLGWK-OH / II: H-CVRQLYIDFRKDLGWK-OH; disulfide I:1-II:1)
TGF-β receptor [2]
  ED50 (competition against binding of 125I-TGF-β1): 10000 to 15000 nM
TGF-β receptor [1]
  ED50 (competition against binding of 125I-TGF-β2): 10000 to 15000 nM

## CVRQLYIDFRKDLGWKWIHEPKGYHANFCLGP [TGF-β116-47 monomer]
[3]
  ED50 / activity in words: some activity
  ED50 (half-maximal inhibition of cell proliferation): 1000 nM
TGF-β receptor [2]; 25 pM 125I-TGF-β1, L6 cells
  ED50 (competition against binding of 125I-TGF-β1), in words: not active
TGF-β receptor [2]
  competing against the binding of 125I-TGF-β1: either inactive or weakly active

## CLRPLYIDFKRDLGWK [TGF-β216-31]
[3]
  ED50 / activity in words: inactive
Murine thymocytes
  activity in thymocyte proliferation assay: inactive
TGF-β receptor [1]; 25 pM 125I-TGF-β2, L6 cells
  ED50 (competition against binding of 125I-TGF-β2), in words: inactive

## CLRPLYIDFKRDLGWKWIHEPKGYNANFCAGA [TGF-β216-47 monomer]
[3]
  ED50 / activity in words: not active
TGF-β receptor [1]; [4]
  ED50 (competition against binding of 125I-TGF-β2): 30000 nM
TGF-β receptor [1]; at concentrations of up to 30 μM
  competing against the binding of 125I-TGF-β2: either inactive or weakly active

## TGF-β2: full length transforming growth factor β2, used as the standard
Murine thymocytes; [5]
  ED50 (inhibition of 3H-thymidine incorporation): approximately 4 pM

B1: CVRQLYIDFRKDLGWKWIHEPKGYHANFCLGP [TGF-β116-47 dimer] (peptide)
chain 1: CVRQLYIDFRKDLGWKWIHEPKGYHANFCLGP
chain 2: CVRQLYIDFRKDLGWKWIHEPKGYHANFCLGP
modifications: disulfide (positions not given here); also: disulfide-bonded homodimer, Cys pairing not given here
TGF-β receptor [2]; 25 pM 125I-TGF-β1, L6 cells
  ED50 (competition against binding of 125I-TGF-β1), in words: not active
TGF-β receptor [2]
  competing against the binding of 125I-TGF-β1: either inactive or weakly active

B2: CLRPLYIDFKRDLGWKWIHEPKGYNANFCAGA [TGF-β216-47 dimer] (peptide)
chain 1: CLRPLYIDFKRDLGWKWIHEPKGYNANFCAGA
chain 2: CLRPLYIDFKRDLGWKWIHEPKGYNANFCAGA
modifications: disulfide (positions not given here); also: disulfide-bonded homodimer, Cys pairing not given here
[3]
  ED50 (half-maximal inhibition of cell proliferation): 4 to 14 nM
[3]; from ED50
  fold more activity than dimerized TGF-β116-47: 11-38 fold
Murine thymocytes; [5]
  ED50 (inhibition of thymocyte proliferation): 57 nM
TGF-β receptor [1]; [4]
  ED50 (competition against binding of 125I-TGF-β2): 3000 nM
TGF-β receptor [1]; read-out: apparent dissociation constant, estimated from competitive binding data, 125I-TGF-β2
  Kd: ~3000 nM
